Some results are limits rather than exact numbers.

For one series, the target named is CYP2D6 (Homo sapiens, UniProt P10635). Kind of series: CYP inhibition assay, CYP2D6. To be noted: human liver microsomes 0.25 mg/ml, 10 μM, 15 minutes. The procedure:
(§1) Metabolites of each CYP isoenzyme indicator drug produced through the reaction were analyzed by LC-MS/MS using the Shimadzu Nexera XR system and TSQ vantage (Thermo).
For orientation: Liver microsomes are vesicles of endoplasmic reticulum, rich in cytochrome P450 enzymes.

The target in another series is CYP2C19 (Homo sapiens, UniProt P33261). The series can be described thus: CYP inhibition assay, CYP2C19. Conditions: human liver microsomes 0.25 mg/ml, 10 μM, 15 minutes. The procedure: as §1
CYP2C19, sequence (P33261 whole entry): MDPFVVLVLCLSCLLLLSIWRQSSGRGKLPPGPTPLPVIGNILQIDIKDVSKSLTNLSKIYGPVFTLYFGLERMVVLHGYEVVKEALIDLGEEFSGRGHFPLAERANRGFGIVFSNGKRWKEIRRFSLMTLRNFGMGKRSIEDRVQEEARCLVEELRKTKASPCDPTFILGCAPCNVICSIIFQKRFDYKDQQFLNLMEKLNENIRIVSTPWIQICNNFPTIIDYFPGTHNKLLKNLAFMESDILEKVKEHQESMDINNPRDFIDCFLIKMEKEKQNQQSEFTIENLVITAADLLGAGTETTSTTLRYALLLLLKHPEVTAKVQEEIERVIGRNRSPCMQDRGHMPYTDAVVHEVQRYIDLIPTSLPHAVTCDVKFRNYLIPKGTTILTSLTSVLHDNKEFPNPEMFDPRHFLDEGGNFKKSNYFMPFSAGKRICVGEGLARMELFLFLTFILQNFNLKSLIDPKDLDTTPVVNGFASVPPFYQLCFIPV
For another series, the target named is CYP3A4 (Homo sapiens, UniProt P08684). Kind of series: CYP inhibition assay, CYP3A4. Conditions: human liver microsomes 0.25 mg/ml, 10 μM, 15 minutes. As to the method: as §1
CYP3A4, sequence (P08684 whole entry): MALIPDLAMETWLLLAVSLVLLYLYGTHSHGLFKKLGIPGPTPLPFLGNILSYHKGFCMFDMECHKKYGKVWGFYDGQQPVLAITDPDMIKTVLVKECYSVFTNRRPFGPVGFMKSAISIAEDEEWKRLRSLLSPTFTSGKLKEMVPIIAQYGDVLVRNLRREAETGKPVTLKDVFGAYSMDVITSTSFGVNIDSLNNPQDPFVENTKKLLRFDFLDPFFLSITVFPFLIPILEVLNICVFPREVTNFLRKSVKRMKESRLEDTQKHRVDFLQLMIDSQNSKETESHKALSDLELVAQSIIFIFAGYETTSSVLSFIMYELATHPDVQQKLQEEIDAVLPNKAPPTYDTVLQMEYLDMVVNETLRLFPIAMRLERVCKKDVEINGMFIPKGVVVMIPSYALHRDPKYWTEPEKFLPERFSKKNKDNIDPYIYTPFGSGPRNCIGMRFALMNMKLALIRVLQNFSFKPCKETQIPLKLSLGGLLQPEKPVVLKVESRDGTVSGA
The test system of a further series is AMPK phosphorylation. The series can be described thus: AMPK phosphorylation activity in mouse adipocytes (Western blot). Format: cell-based. To be noted: 3T3-L1, 10 μM, 24 hours, Western blot; APN5 = 1.0. The procedure: There were confirmed effects of the peptoid derivative of the present disclosure on the expression and receptor activity of adiponectin in mouse adipocytes as a main adiponectin production site. A mouse adipocyte cell line 3T3-L1 was treated with each of the peptoid derivatives of the present disclosure at a concentration of 10 μM and cultured for 24 hours, and then cells were obtained. Thereafter, the protein was extracted and the effect of adiponectin on AMPK phosphorylation, which was responsible for the main downstream signaling, was confirmed by Western blot.
(Immunoblotting shows a protein as a band on a membrane.)

For another series, the target named is T1, CYP1A2 (Homo sapiens, UniProt P05177).
T1 sequence (P05177 1-516): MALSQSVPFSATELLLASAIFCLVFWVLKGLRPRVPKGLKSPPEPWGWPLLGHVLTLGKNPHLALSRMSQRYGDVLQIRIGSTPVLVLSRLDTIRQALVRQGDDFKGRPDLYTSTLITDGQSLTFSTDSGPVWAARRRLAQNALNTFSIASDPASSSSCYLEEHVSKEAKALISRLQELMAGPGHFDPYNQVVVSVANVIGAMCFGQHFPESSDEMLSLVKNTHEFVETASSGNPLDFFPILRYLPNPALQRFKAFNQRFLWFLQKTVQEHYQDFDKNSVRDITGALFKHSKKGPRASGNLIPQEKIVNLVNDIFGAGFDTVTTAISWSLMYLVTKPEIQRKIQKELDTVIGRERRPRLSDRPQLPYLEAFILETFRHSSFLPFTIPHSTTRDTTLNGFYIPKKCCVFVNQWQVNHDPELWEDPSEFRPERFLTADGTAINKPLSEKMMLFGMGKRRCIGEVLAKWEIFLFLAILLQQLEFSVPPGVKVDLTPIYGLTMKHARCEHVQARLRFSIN
The series can be described thus: CYP inhibition assay, CYP1A2. To be noted: human liver microsomes 0.25 mg/ml, 10 μM, 15 minutes. As to the method: as §1

Another series has as its target CYP2C9 (Homo sapiens, UniProt P11712). Kind of series: CYP inhibition assay, CYP2C9. Conditions: human liver microsomes 0.25 mg/ml, 10 μM, 15 minutes. The procedure: as §1
Series [1] is described as follows: Plasma stability test, human plasma. To be noted: 1 μM, 37° C.
Description: (§2) The peptoid derivative of the present disclosure was added at a concentration of 1 μM to two types of plasma (human, rat), placed in each tube, and then cultured at 37° C. for time of 0, 30, 60, 120, and 240 minutes. The tube containing plasma was taken out every time, added with an acetonitrile solution containing an internal standard material (chlorpropamide), vortexed for 5 minutes, and centrifuged for 5 minutes (14,000 rpm, 4° C.). Thereafter, the plasma stability of the peptoid derivative was evaluated by injecting the supernatant into an LC-MS/MS system and analyzing the drug at each time period. At this time, Procaine and Enalapril were used as reference materials for accuracy during a general plasma stability test.
(§3) After the reaction, the amount of drug remaining in each tube was analyzed by LC-MS/MS using Shimadzu Nexera XR system and TSQ vantage (Thermo). The HPLC column was used with a Luna C18 column (2.0×50 mm, 3 μm particle size; Phenomenex, US), and the mobile phase was distilled water (A) containing 0.1% formic acid and acetonitrile (B) containing 0.1% formic acid. Data analysis was performed using Xcalibur (version 1.6.1). In the result analysis, the plasma stability of each peptoid derivative was expressed as % remaining for each time period for the sample without culture.
Series [2] is described as follows: Metabolic stability test, human liver microsomes. To be noted: human liver microsomes 0.5 mg/ml, 1 μM, NADPH, 37° C.
Description: (§4) Three types of liver microsomes (Human, Rat, Mouse, 0.5 mg/ml), a 0.1 M phosphate buffer solution (pH 7.4), and the peptoid derivative of the present disclosure were added at a concentration of 1 μM and pre-cultured at 37° C. for 5 minutes, and then added with an NADPH Regeneration system solution and cultured at 37° C. for 30 minutes. Thereafter, to terminate the reaction, the mixture was added with an acetonitrile solution containing an internal standard material (chlorpropamide), centrifuged for 5 minutes (14,000 rpm, 4° C.), and then the supernatant was injected into the LC-MS/MS system to analyze a substrate drug, and thus metabolic stability was evaluated.
The HPLC column was used with a Kinetex C18 column (2.1×100 mm, 1.7 μm particle size; Phenomenex, USA), and the mobile phase was distilled water (A) containing 0.1% formic acid and acetonitrile (B) containing 0.1% formic acid. TurboSpray Ionization was used as an ion source for MS/MS, and a triple quadruple type was used as a mass spectrometer. The produced metabolites were quantified using a multiple reaction monitoring (MRM) quantitative mode, and data analysis was performed using Analyst software (version 1.6.1).
The nature of a further series: Solubility test. Conditions: test buffer pH 7.4, DMSO test standard solution, room temperature 24 hours, n=3.
A short description of series [3]: Plasma stability test, rat plasma. To be noted: 1 μM, 37° C.
Description: as §2, §3
Series [4] is described as follows: Metabolic stability test, mouse liver microsomes. To be noted: mouse liver microsomes 0.5 mg/ml, 1 μM, NADPH, 37° C.
Description: as §4
(§5) The amount of substrate remaining through the reaction was analyzed by LC-MS/MS using Agilent 1290 infinity series pump system (Agilent, USA) and Triple Quad 5500 LC-MS/MS system (Applied Biosystems, USA). The HPLC column was used with a Kinetex C18 column (2.1×100 mm, 1.7 μm particle size; Phenomenex, USA), and the mobile phase was distilled water (A) containing 0.1% formic acid and acetonitrile (B) containing 0.1% formic acid. TurboSpray Ionization was used as an ion source for MS/MS, and a triple quadruple type was used as a mass spectrometer. The produced metabolites were quantified using a multiple reaction monitoring (MRM) quantitative mode, and data analysis was performed using Analyst software (version 1.6.1).
Series [5] in a line: Metabolic stability test, rat liver microsomes. Conditions: rat liver microsomes 0.5 mg/ml, 1 μM, NADPH, 37° C.
Description: as §4, §5

CYP2C9, sequence (P11712 whole entry): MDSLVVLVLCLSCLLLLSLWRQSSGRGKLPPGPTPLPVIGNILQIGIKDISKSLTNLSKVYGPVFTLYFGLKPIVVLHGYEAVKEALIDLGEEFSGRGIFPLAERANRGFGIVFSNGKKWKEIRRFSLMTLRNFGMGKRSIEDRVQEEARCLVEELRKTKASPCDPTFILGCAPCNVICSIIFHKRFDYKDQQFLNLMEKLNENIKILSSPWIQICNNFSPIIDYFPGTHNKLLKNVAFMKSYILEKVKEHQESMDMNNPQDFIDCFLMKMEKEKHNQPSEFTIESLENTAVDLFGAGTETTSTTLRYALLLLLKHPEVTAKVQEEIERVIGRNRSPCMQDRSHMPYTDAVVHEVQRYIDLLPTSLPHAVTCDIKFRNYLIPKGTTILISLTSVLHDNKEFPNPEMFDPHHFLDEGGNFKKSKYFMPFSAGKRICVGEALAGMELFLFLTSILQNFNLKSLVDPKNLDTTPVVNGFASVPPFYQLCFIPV
CYP2D6, sequence (P10635 whole entry): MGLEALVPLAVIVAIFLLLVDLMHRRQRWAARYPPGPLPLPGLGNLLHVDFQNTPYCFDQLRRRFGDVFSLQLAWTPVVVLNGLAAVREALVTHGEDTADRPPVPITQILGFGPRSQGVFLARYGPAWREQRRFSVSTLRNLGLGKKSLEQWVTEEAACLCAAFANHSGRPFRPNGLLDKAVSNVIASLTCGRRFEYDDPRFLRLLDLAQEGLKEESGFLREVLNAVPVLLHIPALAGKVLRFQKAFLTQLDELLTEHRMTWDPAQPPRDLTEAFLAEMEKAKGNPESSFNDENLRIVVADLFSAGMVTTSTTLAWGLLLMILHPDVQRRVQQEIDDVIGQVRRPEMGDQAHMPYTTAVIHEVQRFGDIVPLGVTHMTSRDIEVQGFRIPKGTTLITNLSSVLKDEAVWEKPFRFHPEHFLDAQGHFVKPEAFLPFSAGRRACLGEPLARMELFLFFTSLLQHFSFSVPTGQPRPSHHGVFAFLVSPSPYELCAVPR
Description for Solubility test: A PRISMA HT solution was diluted in distilled water at a ratio of 1:40, and then used as a test buffer by adjusting the pH to 7.4.
10 mL of the prepared test material was diluted in 190 μL of isopropyl alcohol and prepared. In addition, 75 mL of the test solution and 70 mL of isopropyl alcohol were mixed to be used as a blank sample, and 5 mL of the test material diluted in isopropyl alcohol was added to the blank sample. After the diluted sample was mixed, the absorbance was measured and used as an initial test value. […] Thereafter, the precipitate was removed from the sample using a filter plate, 74 mL of the filtered sample was added with 75 mL of isopropyl alcohol, and then the absorbance was measured and used as the sample value.
The solubility value of the test material was analyzed using a msol Explore (Solubility explorer program) after measuring the absorbance of each sample through a microplate reader. The average and standard deviation of the experimental values (n=3) repeated three times were calculated using the Excel program.

Turning to `CC(C)C[C@H](NC(=O)CN)C(=O)N[C@@H](Cc1ccc(O)cc1)C(=O)N[C@@H](Cc1ccc(O)cc1)C(=O)N[C@@H](Cc1ccccc1)C(=O)O` [APN5, NH2-GLYYF-OH], the “CYP inhibition (% of control activity) CYP2D6” value on CYP2D6 is listed as 92.3 % of control activity. In addition, the “CYP inhibition (% of control activity) CYP2C19” value on CYP2C19 is recorded as 98.5 % of control activity. For the same compound, the “CYP inhibition (% of control activity) CYP3A4” value on CYP3A4 was 82.9 % of control activity. Moreover, the “AMPK phosphorylation activity (fold change)” value in the series on AMPK phosphorylation was determined as 1.0 fold change. The “CYP inhibition (% of control activity) CYP1A2” value on CYP1A2 is 88.8 % of control activity.
For `O=C(COc1ccc(C(=O)c2ccccc2)cc1)NC1CCN(Cc2ccccc2)CC1` [DS-43, adiporon], at CYP2C9, the “CYP inhibition (% of control activity) CYP2C9” value was 57.8 % of control activity. Also, the “Plasma stability (% remaining) Human, 30 m” value in series [1] (30 m) is recorded as over 100 % remaining. Moreover, the “Plasma stability (% remaining) Human, 120 m” value in [1] (120 m) is on record as over 100 % remaining. Besides, the “Metabolic stability (% remaining) Human, 30 m” value in series [2] came to 54.9 % remaining. In the series “Solubility test”, the “Average DMSO solubility” value worked out at 43.7 µg/mL. The “CYP inhibition (% of control activity) CYP2C19” value at CYP2C19 is 66.0 % of control activity. The “Plasma stability (% remaining) Rat, 30 m” value in [3] (30 m) is recorded as over 100 % remaining. The “Plasma stability (% remaining) Rat, 120 m” value in series [3] (120 m) is recorded as over 100 % remaining. Besides, in the series on AMPK phosphorylation, the “AMPK phosphorylation activity (fold change)” value came to 1.2 fold change. For the same compound, in series [4], the “Metabolic stability (% remaining) Mouse, 30 m” value amounted to 3.1 % remaining. In series [5], the “Metabolic stability (% remaining) Rat, 30 m” value is on record as 2.3 % remaining.

The values above are taken from patent US20250051390A1, “NOVEL ADIPONECTIN-DERIVED PEPTOID DERIVATIVE AND USE THEREOF” (SEOUL NATIONAL UNIVERSITY HOSPITAL, priority 2021, published 2025).
